Measurements published in patent publication US10364227B2, “Therapeutic compounds” (ARIZONA BOARD OF REGENTS ON BEHALF OF ARIZONA STATE …, priority 2015, dated 2019).

Test: not given
Conditions: not given

Structure (SMILES) | melting point [°C]
CCCCCCCCCCCCCCCCc1nc(N2CCCC2)nc(OC2CCC2)c1O [Compound 14, 4-Cyclobutoxy-2-(pyrrolidin-1-yl)-6-hexadecylpyrimidin-5-ol] | 74 to 76
CCCCCCCCCCCCCCCCc1nc(N2CCCCC2)nc(OC2CCC2)c1O [Compound 15, 4-Cyclobutoxy-2-(piperidin-1-yl)-6-hexadecylpyrimidin-5-ol] | 78 to 79
CCCCCCCCCCCCCCCOc1nc(N2CCC2)nc(C)c1O [Compound 11, 2-(Azetidin-1-yl)-4-methyl-6-(pentadecyloxy)pyrimidin-5-ol] | 83 to 85
[2H]C([2H])([2H])N(c1nc(CCCCCCCCCCCCCCCC)c(O)c(OC2CCC2)n1)C([2H])([2H])[2H] [Compound 13, 4-Cyclobutoxy-2-(N,N-dimethylamino)-6-hexadecylpyrimidin-5-ol-d6] | 72 to 73
[2H]C(CCCCCCCCCCCCCCC)c1nc(N(C([2H])([2H])[2H])C([2H])([2H])[2H])nc(OC([2H])([2H])[2H])c1O (stereo not drawn) [Compound 2, 2-(N,N-dimethylamino-d6)-4-(1-hexadecyl-d1)-6-(methoxy-d3)-pyrimidin-5-ol] | 75 to 76

Further lines, results first:

melting point [°C] | Structure (SMILES)
59 to 60 | CCCCCCCCCCCCCCCCc1nc(N2CCC2)nc(OC)c1O [Compound 8, 2-(Azetidin-1-yl)-4-methoxy-6-hexadecylpyrimidin-5-ol]
79 to 80 | CCCCCCCCCCCCCCCCc1nc(N2CCC2)nc(OCC)c1O [Compound 9, 2-(Azetidin-1-yl)-4-ethoxy-6-hexadecylpyrimidin-5-ol]

Test: not given
Conditions: calculated value, James et al. (2005) J Biol. Chem. 280, 21295; cited from earlier work

Structure (SMILES) | calculated octanol-water partition coefficient
COC1=C(OC)C(=O)C(C/C=C(\C)CC/C=C(\C)CC/C=C(\C)CC/C=C(\C)CC/C=C(\C)CC/C=C(\C)CC/C=C(\C)CC/C=C(\C)CC/C=C(\C)CCC=C(C)C)=C(C)C1=O [coenzyme Q10] | > 10^20

Test: Bioavailability in a mouse model (blood level after oral gavage)
Format: in vivo
Conditions: whole blood, 100 mg/kg oral gavage in olive oil, blood sample 6 h after gavage, quantified by HPLC
Protocol: Bioavailability is an important characteristic of many therapeutic agents. Accordingly, certain compounds disclosed herein were tested for bioavailability in a mouse model.
The test compound was prepared on the day of dose administration by dissolving the appropriate amount of test article in olive oil to reach the proper concentrations.
The dose of 100 mg/kg body weight (total volume of administration was <120 μL) was used for testing. For example, a mouse whose body weight is 20 g would need 2 mg of test article in oral gavage. Mice were food deprived overnight. On the experimental day, mice were weighed to obtain dosage information before oral gavage was performed. Blood and brain samples were collected at the desired post-dose time points after oral gavage. Brain samples were perfused to exclude blood as a factor in the analysis of bioavailability.

concentration at 6 h [µM] | Structure (SMILES)
~4 | CCCCCCCCCCCCCCCCc1nc(N2CCC2)nc(OC2CCC2)c1O [Compound 12, 2-(Azetidin-1-yl)-4-cyclobutanoxy-6-hexadecylpyrimidin-5-ol]
